From publication PMC13242511, “Disrupting Notch signalling by a small molecule inhibiting dihydroorotate dehydrogenase activity” (Scientific Reports, 2026)
“And” between values parts separate entries of the source, which are not always exact repeats. Equal values may be shown once.

Tests used:
Type in all cases: cell-based
MDA-MB-231 cells = assay: Immunocytochemistry of NOTCH1, nuclei and giant cell count; parameters: Average Size nuclei / AVG Average Size nuclei: unit not given here; conditions: for fraction of cells with large nuclei / overall level of NOTCH1 (ICC) / AVG Giant cells/ total nucl (%) / AVG Average Size nuclei / Average Size nuclei / Count (nuclei per field) / Giant cells /field / Giant cells/ total nucl (%): MDA-MB-231, 2 µM; for fraction of cells with large nuclei / overall level of NOTCH1 (ICC): 24 h; for fraction of cells with large nuclei: compared to DMSO, Fig. 8D; for overall level of NOTCH1 (ICC): Fig. 8A; for Average Size nuclei / Count (nuclei per field) / Giant cells /field / Giant cells/ total nucl (%): single images; for cell morphology: overview in comparison to compound C, Supplemental Fig. 9
Experimental: 20,000 MDA-MB-231 cells were seeded on cover-slides (BD Bioscience), allowed to attach and treated with 2 µM compound for 24 h and 72 h upon reaching 80% confluence. For quantification of NOTCH1 signals and to monitor morphological changes immunocytochemistry staining to localize NOTCH1 was carried out as described above for C2C12 cells. Cellular morphology was visualized with Phalloidin (Thermofisher, cat # A22287), used at 1:2000 dilution and a NOTCH1 antibody used at 1:100 dilution (Cell signalling, cat #D6F11). Images were recorded using a Zeiss LSM 700 laser scanning microscope with a 40 × objective. Identical channel configuration and detector gain settings were used for quantification of fluorescence signals and a minimum of four images were recorded per condition. Secondary antibody control background signals were averaged and subtracted from each image and the same brightness and contrast adjustments were applied to all images before conducting histogram-based quantification of NOTCH1 signals. A 10 × objective was used for assessing morphological changes and a minimum of four and three images at 24 h and 72 h, respectively were recorded for quantification of nuclei count, size and number of giant cells. Images were processed using Fiji (ImageJ) software and objects were separated from background using Otsu thresholding until all nuclei were detectable. Nuclei objects were filled and nuclei particles were measured using size exclusion and circularity filter settings, 10-infinity (size) and 0,1–0,5 (circularity). Overlay images of nuclear stain and Phalloidin were used to manually count and annotate giant cells using Fiji’s cell counter.

JURKAT cells = assay: Growth inhibition, metabolic activity (CellTiter-Glo); conditions: Homo sapiens, six days, read-out: approximated IC50, growth (metabolic activity)
From the text: (§1) We next investigated whether compounds A-E affected growth and viability of cell lines from T-cell acute lymphoblastic leukaemia (T-ALL) and breast cancer, two tumour types in which elevated Notch signalling has been implicated in tumorigenesis. […] When testing analogues of compounds B and C, five of the seven B analogues and one of the two C analogues produced dose–response curves and IC50s, which however were higher compared to the original hits (Supplemental Fig. 5A; IC50s are presented in Supplemental Table 6).
(§2) Compounds were spotted on white 384-well tissue culture plates (Greiner, cat #781080) using an Echo 525 Acoustic liquid handler (Labcyte). Cells were grown to 80% confluence, detached if required, counted and 20 µl containing 2000–4000 cells per well was then seeded in each well and cultivated for three (4,000 cells seeded) and six days (2,000 cells seeded). […] Luciferase activity (reading out metabolic activity) was determined using the CellTiter-Glo 2.0 kit (CTG, Promega, cat #G9242) following the manufacturer’s instructions and luminescence was measured on a SpectraMaxi3 or Varioscan plate reader (Molecular Devices, Thermofisher).

RPMI-8402 cells = assay: as above; conditions: Homo sapiens; RPMI-8402, six days; read-out: approximated IC50, growth (metabolic activity)
From the text: as §1, §2

HEK293T cells = assay: as above; conditions: six days, Supplemental Fig. 5E
Experimental: We also tested three analogues to compound B and one analogue to compound C. […] To assess the effects of compound A-E in a cell line with very low levels of Notch signalling we repeated the growth inhibition assay in HEK293T cells.
as §2

MDA-MB-468 cells = assay: Three dose response gene expression analysis (qRT-PCR); conditions: 0.1, 1 and 10 µM, 24 h
Experimental: Total RNA from cell lines was isolated using the RNeasy Mini kit (cat #74104, Qiagen), according to the manufacturer’s instructions. qRT-PCR was performed as described elsewhere[51] with some minor modifications: RNA was reverse transcribed to cDNA using iScript Reverse Transcription Supermix (cat # 1708841, Bio-rad). cDNA was then diluted 1:5 in nuclease free H20. qRT-PCR was performed on a C1000 Touch thermal cycler (Bio-rad) and gene expression was detected with SsoAdvanced Universal SYBR Green Supermix (cat # 1725274, Bio-rad). Gene expression was determined by normalizing to GAPDH mRNA expression levels and fold expression change was calculated using the ΔΔCT method (ΔΔCT = ΔCt sample − Δct control). Primers used in qPCR are shown in Supplemental Table 9.
Adherent breast cancer cells were seeded in 24-well cell culture plates (ThermoFisher, Nunc, Delta surface, cat #144530) and T-ALL cells growing in suspension (Jurkat, RPMI-8402) were seeded in non-adherent 24-well plates (ThermoFisher, Nunc, cat […]). 60.000 cells were seeded and treated with 0.1, 1 and 10 µM of each compound. […] Cells were harvested 24 h post treatment and RNA isolation and gene expression analysis (qRT-PCR) was performed as described above.

With `COc1cccc(CNc2ccc(N3CCCCC3)cc2)c1OCc1cccs1` [compound C] the “fraction of cells with large nuclei” value (MDA-MB-231 cells) was “increased fraction”, the “overall level of NOTCH1 (ICC)” value (MDA-MB-231 cells) was “not affected” and the “AVG Giant cells/ total nucl (%)” value (MDA-MB-231 cells; 24h treatment, DMSO 1.4) was 2.4%. For the same compound, the “AVG Average Size nuclei” value (MDA-MB-231 cells; 24h treatment, DMSO 184.3) was 211.1, the “Average Size nuclei” value (MDA-MB-231 cells; 24h treatment) was 215.8 and 220.5 and 221.4 and 186.7 and the “Count (nuclei per field)” value (MDA-MB-231 cells; 24h treatment) was 1118.0 and 1274.0 and 861.0 and 1213.0. The Giant cells /field (MDA-MB-231 cells; 24h treatment) was 26.0 and 28.0 and 22.0 and 30.0, the “Giant cells/ total nucl (%)” value (MDA-MB-231 cells; 24h treatment) was 2.3% and 2.2% and 2.6% and 2.5% and the “AVG Giant cells/ total nucl (%)” value (MDA-MB-231 cells; 72h treatment, DMSO 0.7) was 3.8%. The “AVG Average Size nuclei” value (MDA-MB-231 cells; 72h treatment, DMSO 184.1) was 267.6, the “Average Size nuclei” value (MDA-MB-231 cells; 72h treatment) was 254.0 and 270.2 and 244.9 and 301.2 and the “Count (nuclei per field)” value (MDA-MB-231 cells; 72h treatment) was 251.0 and 246.0 and 215.0 and 208.0. For the same compound, the Giant cells /field (MDA-MB-231 cells; 72h treatment) was 9.0 and 8.0 and 10.0, the “Giant cells/ total nucl (%)” value (MDA-MB-231 cells; 72h treatment) was 3.6% and 3.3% and 3.7% and 4.8% and the cell morphology (MDA-MB-231 cells) was “strongest effect”. It also gave an IC50 (JURKAT cells) of 4300 nM and an IC50 (RPMI-8402 cells) of 600 nM.
For `CCc1c(C(=O)N(C)Cc2cnn(C(C)C)c2)[nH]c2ccccc12` [compound A], the growth inhibitory effect (HEK293T cells) was “did not exert a growth inhibitory effect”.
`CC(C)(C(=O)NCC(F)(F)C(F)(F)F)C(=O)N[C@@H]1C(=O)Nc2ccccc2-c2ccccc21` [RO4929097, reference compound] was tested, and the c-MYC expression (MDA-MB-468 cells) was “did not reduce”, the “fraction of cells with large nuclei” value (MDA-MB-231 cells) was “smaller increase” and the “overall level of NOTCH1 (ICC)” value (MDA-MB-231 cells) was “trend towards reduced levels”. The “AVG Giant cells/ total nucl (%)” value (MDA-MB-231 cells; 24h treatment, DMSO 1.4) was 1.7%, the “AVG Average Size nuclei” value (MDA-MB-231 cells; 24h treatment, DMSO 184.3) was 170.6 and the “Average Size nuclei” value (MDA-MB-231 cells; 24h treatment, listed as GSI) was 168.5 and 151.9 and 180.3 and 181.9. The “Count (nuclei per field)” value (MDA-MB-231 cells; 24h treatment, listed as GSI) was 1431.0 and 1167.0 and 1371.0 and 1390.0, the Giant cells /field (MDA-MB-231 cells; 24h treatment, listed as GSI) was 23.0 and 26.0 and 17.0 and 24.0 and the “Giant cells/ total nucl (%)” value (MDA-MB-231 cells; 24h treatment, listed as GSI) was 1.6% and 2.2% and 1.2% and 1.7%. The “AVG Giant cells/ total nucl (%)” value (MDA-MB-231 cells; 72h treatment, DMSO 0.7) was 1.2%, the “AVG Average Size nuclei” value (MDA-MB-231 cells; 72h treatment, DMSO 184.1) was 205.4 and the “Average Size nuclei” value (MDA-MB-231 cells; 72h treatment, listed as GSI) was 177.5 and 237.7 and 201.1. For the same compound, the “Count (nuclei per field)” value (MDA-MB-231 cells; 72h treatment, listed as GSI) was 508.0 and 335.0 and 447.0, the Giant cells /field (MDA-MB-231 cells; 72h treatment, listed as GSI) was 4.0 and 6.0 and 5.0 and the “Giant cells/ total nucl (%)” value (MDA-MB-231 cells; 72h treatment, listed as GSI) was 0.8% and 1.8% and 1.1%. For the same compound, the cell morphology (MDA-MB-231 cells) was “moderate effect”.
With `NC(=O)c1c(NC(=O)NCc2cccnc2)sc2c1CCC2` [compound D] the growth inhibitory effect (HEK293T cells) was “did not exert a growth inhibitory effect”.
For `Cc1ccc2[nH]c3c(c2c1)CCOC31CCN(Cc2ccccc2-c2ccccc2)CC1` [compound B], the IC50 (JURKAT cells) was 300 nM and the IC50 (RPMI-8402 cells) was 500 nM.
For `Cc1nn(-c2nc3ccccc3s2)c(O)c1C1OC(=O)c2ccccc21` (centres unmarked) [compound E], the growth inhibitory effect (HEK293T cells) was “did not exert a growth inhibitory effect”.
`CC(C)(C)c1ccc(Oc2ccc(N)cn2)cc1` [CB-103, reference compound] was tested, and the HES4 expression (MDA-MB-468 cells) was “upregulation”, the IC50 (JURKAT cells) was 1700 nM and the IC50 (RPMI-8402 cells) was 900 nM.
